Where “and” joins values, the source holds several entries; their conditions need not be identical. Equal entries are not always repeated. Marks after values point to notes of the source that are not given here.
Experiments:
[1] = system: Cryptococcus neoformans ATCC 90112; assay: In vitro antifungal activity, yeasts, NCCLS M27-A; assay type: cell-based; conditions: Cryptococcus neoformans, ATCC90112; Table 9
Excerpt: (§1) The assay used for yeasts (Candida; Cryptococcus) is that of the National Committee for Clinical Laboratory Standards. 1997. Reference Method for Broth Dilution Antifungal Susceptibility Testing of Yeasts: Approved Standard. NCCLS document M27-A.Villanova, Pa., USA as published in Ghannoum, M. A., A. S. Ibrahim, Y. Fu, M. C. Shafiq, J. E Edwards, Jr. and R. S. Criddle. 1992. Susceptibility testing of Cryptococcus neoformans: A microdilution technique. J. Clin. Microbiol. 30:2881-2886.

[2] = system: Candida albicans ATCC 10231; assay: In vitro antifungal activity, yeasts, NCCLS M27-A; assay type: cell-based; conditions: Candida albicans, ATCC10231; Table 9
Excerpt: as §1

[3] = system: secreted phospholipase B (LPL/LPTA activities); assay: Radiometric assay, secreted LPL and LPTA activities (Lyso assay); assay type: biochemical, Cryptococcus neoformans H99; conditions: for % Inhibition LPL, Secretory Enzyme / % Inhibition LPTA, Secretory Enzyme: pH 4
Outline: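 Cell-free supernatant from C. neoformans H99 (incubated 24 h at 37° C in imidazole buffer, pH 5.5) with 1 μg total protein and 200 μM lyso-PC incl. 1-[^14C]palmitoyl lyso-PC, 15 s reaction. LPL from substrate loss, LPTA from radiolabelled PC formed, after extraction and TLC; inhibitors tested at 25 and 250 μM, then 2.5 and 0.25 μM, inhibition vs inhibitor-free control, triplicate.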

[4] = system: two strains of C. neoformans and one strain of Candida albicans; assay: Standardised serial dilution sensitivity test, results stated over all strains; assay type: cell-based
Experimental: Antifungal susceptibility testing. The antifingal activity of the compounds was measured by a standard microdilution method. […] The fungal strains tested included Cryptococcus neoformans H99, Cryptococcus neoformans ATCC 90112 and Candida albicans ATCC 10231. All tests were performed in duplicate.

[5] = system: C. neoformans strain H99 phospholipases; assay: Inhibition of C. neoformans strain H99 phospholipases (all enzymes and activities); assay type: biochemical, Cryptococcus neoformans H99
Experimental: Radiometric assay method for phospholipases. Enzyme activities were measured as described previously in a final volume of 125 μL at 37° C. For the determination of secreted PLB activity, carrier dipalmitoyl phosphatidylcholine (DPPC, final concentration 800 μM) and 1,2-di[1-^14C] palmitoyl phosphatidylcholine (20,000 dpm) were dried under nitrogen and suspended in 125 mM imidazole acetate buffer (assay buffer, pH 4.0) by sonication using a Branson 450 sonifier. The reaction time was 22 min, using 1 μg total protein and PLB activity was determined by the rate of decrease of the radiolabelled PC substrate, with appearance of the label in free fatty acid. […] These activities were measured by the appearance of radiolabel from PC in Lyso PC, diacylglycerol and phosphatidic acid, respectively.
Secreted LPL and LPTA activities were measured simultaneously in a reaction mixture containing 1-[^14C]palmitoyl lyso-PC (25,000 dpm) and carrier lyso-PC (final concentration 200 μM) in assay buffer. The reaction time was […] with 1 μg of total protein and LPL activity was measured by the rate of loss of 1-[^14C]palmitoyl lyso-PC with release of radiolabelled fatty acids. […]
All reactions were terminated by adding 0.5 mL of chloroform:methanol (2:1 v/v). […] 37:911-917, separated by TLC and quantified as previously described. […]

[6] = system: C. albicans (ATCC10231) phospholipases; assay: Inhibition of C. albicans phospholipases; assay type: biochemical

Question: With `CCCC[N+](CCCC)(CCCC)CCCCCCCCCCCC[N+](CCCC)(CCCC)CCCC` [1,12-Bis-(tributylammonium)dodecane dichloride] as the molecule, how does the MIC [1] read?
Answer: 1.3 µg/mL and 2.2 µM

Question: What about the MIC [2] of the same molecule?
Answer: 2.6 µg/mL and 4.4 µM

Question: `CCCC[P+](CCCC)(CCCC)CCCCCCCCCCCC[P+](CCCC)(CCCC)CCCC` [Compound 1, 1,12-bis(tributylphosphonium)dodecane dibromide] was tested. Which “Lyso assay (% inhibition) LPL” value ([3]; 0.25 μM) did it give?
Answer: 0%

Question: What about the “Lyso assay (% inhibition) LPTA” value ([3]; 0.25 μM) of the same molecule?
Answer: 0%

Question: What about the “% Inhibition LPL, Secretory Enzyme” value ([3]; 0.25 μM) of the same molecule?
Answer: 0%

Question: And the “% Inhibition LPTA, Secretory Enzyme” value ([3]; 0.25 μM)?
Answer: 0%

Question: And the “Lyso assay (% inhibition) LPL” value ([3]; 2.5 μM)?
Answer: 0%

Question: And the “Lyso assay (% inhibition) LPTA” value ([3]; 2.5 μM)?
Answer: 0%

Question: What about the “% Inhibition LPL, Secretory Enzyme” value ([3]; 2.5 μM) of the same molecule?
Answer: 0%

Question: And the “% Inhibition LPTA, Secretory Enzyme” value ([3]; 2.5 μM)?
Answer: 0%

Question: What about the “Lyso assay (% inhibition) LPL” value ([3]; 25 μM) of the same molecule?
Answer: 0%

Question: What about the “Lyso assay (% inhibition) LPTA” value ([3]; 25 μM) of the same molecule?
Answer: 0%

Question: And the “% Inhibition LPL, Secretory Enzyme” value ([3]; 25 μM)?
Answer: 0%

Question: What about the “% Inhibition LPTA, Secretory Enzyme” value ([3]; 25 μM) of the same molecule?
Answer: 0%

Question: And the “Lyso assay (% inhibition) LPL” value ([3]; 250 μM)?
Answer: 6%

Question: And the “Lyso assay (% inhibition) LPTA” value ([3]; 250 μM)?
Answer: 4%

Question: And the “% Inhibition LPL, Secretory Enzyme” value ([3]; 250 μM)?
Answer: 6.3* %

Question: What about the “% Inhibition LPTA, Secretory Enzyme” value ([3]; 250 μM) of the same molecule?
Answer: 3.7* %

Question: Which results are given for `CCCC[N+](CCCC)(CCCC)CCCCCCCCCCCC[N+](CCCC)(CCCC)CCCC` [Compound 3, 1,12-bis(tributylammonium)do-decane dibromide]?
Answer: antifungal / fungicidal activity, in words [4]: fungicidal activity; enzyme (phospholipase) inhibition, in words [5]: inhibits; inhibition of C. albicans (ATCC10231) phospholipases, in words [6]: inhibits

Source: patent publication US7947854B2, “Bis-cationic compounds and use thereof” (The University of Sydney, priority 2003, dated 2011)
